PubChem BioAssay AID330 (DTP/NCI, 2004)
Several values for one entry are separate records, joined by “and”; a condition that tells them apart may be missing. Equal entries are not always repeated. Structures can show the parent of a compound that is named as a salt. Inconclusive results and toxic doses are left out. Peptide text beside a SMILES is read from it. * marks the point of attachment. Tfa = O=C(C(F)(F)F)*

System: P388 leukemia ip, CD2F1 mice, survival T/C
Experiment: NCI In Vivo Anticancer Drug Screen. Data for tumor model P388 Leukemia (intraperitoneal) in CD2F1 (CDF1) mice
Details: endpoint: median survival time, higher = longer survival
Method in brief: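 Mice carrying the transplanted tumor received test compound or vehicle. Survival was recorded in each group, and the value is the treated-group measurement divided by that of the vehicle-treated control group.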

[1] = dose: 60.0 mg/kg/injection, schedule: Q01DX005 (ip), vehicle: saline with Tween-80
[2] = dose: 120.0 mg/kg/injection, schedule: Q01DX005 (ip), vehicle: saline with Tween-80
[3] = dose: 240.0 mg/kg/injection, schedule: Q01DX005 (ip), vehicle: saline with Tween-80
[4] = dose: 50.0 mg/kg/injection, schedule: Q01DX005 (ip), vehicle: saline with Tween-80
[5] = dose: 100.0 mg/kg/injection, schedule: Q01DX005 (ip), vehicle: saline with Tween-80
[6] = dose: 200.0 mg/kg/injection, schedule: Q01DX005 (ip), vehicle: saline with Tween-80
[7] = dose: 50.0 mg/kg/injection, schedule: Q01DX009 (ip), vehicle: saline with Tween-80
[8] = dose: 100.0 mg/kg/injection, schedule: Q01DX009 (ip), vehicle: saline with Tween-80
[9] = dose: 200.0 mg/kg/injection, schedule: Q01DX009 (ip), vehicle: saline with Tween-80

Q: How did the T/C [1] turn out when `Cc1cccc(NC(=S)NC2C(=O)Nc3ccccc32)c1` (stereo not given) was run?
A: 102 % of control

Q: And the T/C [2]?
A: 100 % of control

Q: What about the T/C [3] of the same molecule?
A: 98 % of control

Q: Which T/C [4] does the source give for `COC(=O)C1CCOCCCOCCCOCCCOCCCOCCCC1=O` (stereo not given) here?
A: 100 % of control

Q: What about the T/C [5] of the same molecule?
A: 105 % of control

Q: What about the T/C [6] of the same molecule?
A: 100 % of control

Q: For `CCO/C=C/C=C1C(=O)N(C)C(=O)N(C)C1=O`, which T/C (dose: 25.0 mg/kg/injection, schedule: Q01DX009 (ip), vehicle: saline + Tween-80 + alcohol) is on record?
A: 100 % of control and 108 % of control

Q: And the T/C (dose: 50.0 mg/kg/injection, schedule: Q01DX009 (ip), vehicle: saline + Tween-80 + alcohol)?
A: 111 % of control and 118 % of control

Q: And the T/C (dose: 100.0 mg/kg/injection, schedule: Q01DX009 (ip), vehicle: saline + Tween-80 + alcohol)?
A: 108 % of control and 117 % of control

Q: What about the T/C (dose: 200.0 mg/kg/injection, schedule: Q01DX009 (ip), vehicle: saline + Tween-80 + alcohol) of the same molecule?
A: 115 % of control and 119 % of control

Q: And the T/C (dose: 400.0 mg/kg/injection, schedule: Q01DX009 (ip), vehicle: saline + Tween-80 + alcohol)?
A: 103 % of control

Q: What does the source list for `COC(=O)CC(NC(=O)C1CCCN1C(=O)C(F)(F)F)C(=O)OC` (stereo not drawn) (Tfa-Pro-Asp(OMe)-OMe; configuration not given here)?
A: T/C (dose: 100.0 mg/kg/injection, schedule: Q01DX001 (ip), vehicle: saline with Tween-80): 104 % of control; T/C (dose: 200.0 mg/kg/injection, schedule: Q01DX001 (ip), vehicle: saline with Tween-80): 101 % of control and 100 % of control; T/C (dose: 400.0 mg/kg/injection, schedule: Q01DX001 (ip), vehicle: saline with Tween-80): 104 % of control

Q: With `Nc1cccc2c1C(=O)c1cccc(Cl)c1C2=O` as the molecule, how does the T/C (dose: 100.0 mg/kg/injection, schedule: Q04DX003 (ip), vehicle: saline with Tween-80) read?
A: 104 % of control

Q: And the T/C (dose: 200.0 mg/kg/injection, schedule: Q04DX003 (ip), vehicle: saline with Tween-80)?
A: 104 % of control

Q: What about the T/C (dose: 400.0 mg/kg/injection, schedule: Q04DX003 (ip), vehicle: saline with Tween-80) of the same molecule?
A: 100 % of control

Q: What does the source list for `COC(SC)(SC)c1cc(-c2c(Cl)cccc2Cl)no1`?
A: T/C [1]: 101 % of control; T/C [2]: 101 % of control; T/C [3]: 103 % of control

Q: What does the source list for `CC[As](CC)SC1OC(C2COC(C)(C)O2)C2OC(C)(C)OC12` (stereo not given)?
A: T/C (dose: 12.5 mg/kg/injection, schedule: Q01DX009 (ip), vehicle: distilled water + Tween-80): 120 % of control; T/C (dose: 25.0 mg/kg/injection, schedule: Q01DX009 (ip), vehicle: distilled water + Tween-80): 123 % of control; T/C (dose: 50.0 mg/kg/injection, schedule: Q01DX009 (ip), vehicle: distilled water + Tween-80): 120 % of control

Q: Which T/C (dose: 6.25 mg/kg/injection, schedule: Q01DX009 (ip), vehicle: other) does the source give for `COc1cc2c(cc1OC)/C(=N/N=C1\CCCc3cc(OC)c(OC)cc31)CCC2` here?
A: 93 % of control

Q: And the T/C (dose: 6.25 mg/kg/injection, schedule: Q01DX009 (ip), vehicle: water)?
A: 98 % of control

Q: And the T/C (dose: 12.5 mg/kg/injection, schedule: Q01DX009 (ip), vehicle: other)?
A: 92 % of control

Q: And the T/C (dose: 12.5 mg/kg/injection, schedule: Q01DX009 (ip), vehicle: water)?
A: 86 % of control

Q: And the T/C (dose: 25.0 mg/kg/injection, schedule: Q01DX009 (ip), vehicle: other)?
A: 92 % of control

Q: What about the T/C (dose: 25.0 mg/kg/injection, schedule: Q01DX009 (ip), vehicle: water) of the same molecule?
A: 86 % of control

Q: And the T/C (dose: 50.0 mg/kg/injection, schedule: Q01DX009 (ip), vehicle: other)?
A: 90 % of control

Q: And the T/C (dose: 100.0 mg/kg/injection, schedule: Q01DX009 (ip), vehicle: other)?
A: 88 % of control

Q: What about the T/C (dose: 100.0 mg/kg/injection, schedule: Q01DX009 (ip), vehicle: water) of the same molecule?
A: 91 % of control

Q: `CS(=O)(=O)CS(=O)(=O)OCCCl` was tested. Which T/C (dose: 6.25 mg/kg/injection, schedule: Q01DX005 (ip), vehicle: dextrose) did it give?
A: 109 % of control

Q: What about the T/C (dose: 6.25 mg/kg/injection, schedule: Q01DX005 (ip), vehicle: distilled water + Tween-80) of the same molecule?
A: 114 % of control

Q: And the T/C (dose: 6.25 mg/kg/injection, schedule: Q01DX005 (iv), vehicle: dextrose)?
A: 109 % of control

Q: What about the T/C (dose: 10.0 mg/kg/injection, schedule: Q01DX005 (ip), vehicle: saline) of the same molecule?
A: 121 % of control

Q: What about the T/C (dose: 12.5 mg/kg/injection, schedule: Q01DX005 (iv), vehicle: dextrose) of the same molecule?
A: 118 % of control

Q: What about the T/C (dose: 22.0 mg/kg/injection, schedule: Q01DX005 (ip), vehicle: saline) of the same molecule?
A: 166 % of control

Q: And the T/C (dose: 25.0 mg/kg/injection, schedule: Q01DX005 (ip), vehicle: dextrose)?
A: 154 % of control

Q: And the T/C (dose: 33.0 mg/kg/injection, schedule: Q01DX005 (ip), vehicle: other)?
A: 230 % of control

Q: What about the T/C (dose: 33.0 mg/kg/injection, schedule: Q01DX005 (ip), vehicle: saline) of the same molecule?
A: 198 % of control

Q: What about the T/C (dose: 33.0 mg/kg/injection, schedule: Q01DX005 (ip), vehicle: water) of the same molecule?
A: 201 % of control

Q: And the T/C (dose: 33.5 mg/kg/injection, schedule: Q01DX005 (ip), vehicle: saline)?
A: 209 % of control

Q: And the T/C (dose: 50.0 mg/kg/injection, schedule: Q01DX005 (ip), vehicle: dextrose)?
A: 241 % of control and 330 % of control

Q: What about the T/C (dose: 50.0 mg/kg/injection, schedule: Q01DX005 (ip), vehicle: distilled water + Tween-80) of the same molecule?
A: 250 % of control

Q: What about the T/C (dose: 50.0 mg/kg/injection, schedule: Q01DX005 (ip), vehicle: other) of the same molecule?
A: 588 % of control

Q: What about the T/C (dose: 50.0 mg/kg/injection, schedule: Q01DX005 (ip), vehicle: saline) of the same molecule?
A: 245 % of control and 267 % of control

Q: What about the T/C (dose: 50.0 mg/kg/injection, schedule: Q01DX005 (ip), vehicle: water) of the same molecule?
A: 254 % of control and 285 % of control

Q: And the T/C (dose: 50.0 mg/kg/injection, schedule: Q01DX005 (iv), vehicle: dextrose)?
A: 196 % of control

Q: What about the T/C (dose: 75.0 mg/kg/injection, schedule: Q01DX005 (ip), vehicle: dextrose) of the same molecule?
A: 582 % of control

Q: What about the T/C (dose: 75.0 mg/kg/injection, schedule: Q01DX005 (ip), vehicle: other) of the same molecule?
A: 588 % of control

Q: What about the T/C (dose: 75.0 mg/kg/injection, schedule: Q01DX005 (ip), vehicle: saline) of the same molecule?
A: 156 % of control

Q: What about the T/C (dose: 75.0 mg/kg/injection, schedule: Q01DX005 (ip), vehicle: water) of the same molecule?
A: 294 % of control

Q: And the T/C (dose: 100.0 mg/kg/injection, schedule: Q01DX005 (ip), vehicle: dextrose)?
A: 535 % of control

Q: What about the T/C (dose: 100.0 mg/kg/injection, schedule: Q01DX005 (ip), vehicle: distilled water + Tween-80) of the same molecule?
A: 535 % of control

Q: What about the T/C (dose: 100.0 mg/kg/injection, schedule: Q01DX005 (ip), vehicle: other) of the same molecule?
A: 588 % of control

Q: And the T/C (dose: 100.0 mg/kg/injection, schedule: Q01DX005 (ip), vehicle: saline)?
A: 151 % of control and 200 % of control

Q: What about the T/C (dose: 100.0 mg/kg/injection, schedule: Q01DX005 (ip), vehicle: water) of the same molecule?
A: 294 % of control

Q: Which results are given for `c1ccc(-c2ccc(-c3csnn3)cc2)cc1`?
A: T/C (dose: 12.5 mg/kg/injection, schedule: Q01DX009 (ip), vehicle: saline with Tween-80): 100 % of control; T/C (dose: 25.0 mg/kg/injection, schedule: Q01DX009 (ip), vehicle: saline with Tween-80): 95 % of control; T/C [7]: 91 % of control and 94 % of control; T/C [8]: 91 % of control; T/C [9]: 88 % of control

Q: How did the T/C [4] turn out when `COc1ccc(C2C3C(=O)OCCOC(=O)C3C2c2ccc(OC)c(OC)c2)cc1OC` (stereo not given) was run?
A: 99 % of control

Q: And the T/C [5]?
A: 104 % of control

Q: What about the T/C [6] of the same molecule?
A: 99 % of control

Q: With `CC(C)SC1NC(=O)N(C)C1=O` (stereo not given) as the molecule, how does the T/C [7] read?
A: 100 % of control

Q: And the T/C [8]?
A: 107 % of control

Q: And the T/C [9]?
A: 100 % of control

Q: For `O=C1c2c3c(c4c(c2C(=O)c2c5c(c6c(c21)CCC6)CCC5)CCC4)CCC3`, which T/C (dose: 10.0 mg/kg/injection, schedule: Q01DX009 (ip), vehicle: saline with Tween-80) is on record?
A: 95 % of control

Q: What about the T/C (dose: 20.0 mg/kg/injection, schedule: Q01DX009 (ip), vehicle: saline with Tween-80) of the same molecule?
A: 96 % of control

Q: What about the T/C (dose: 40.0 mg/kg/injection, schedule: Q01DX009 (ip), vehicle: saline with Tween-80) of the same molecule?
A: 99 % of control

Q: With `Ic1ccc2c(c1)N(c1ccccc1)c1cc(N=c3ccc4nc5ccc(I)cc5n(-c5ccccc5)c-4c3)ccc1N2` as the molecule, how does the T/C (dose: 100.0 mg/kg/injection, schedule: Q01DX009 (ip), vehicle: Klucel (hydroxypropylcellulose) (HPC)) read?
A: 96 % of control

Q: What about the T/C (dose: 200.0 mg/kg/injection, schedule: Q01DX009 (ip), vehicle: Klucel (hydroxypropylcellulose) (HPC)) of the same molecule?
A: 89 % of control

Q: Which T/C (dose: 60.0 mg/kg/injection, schedule: Q01DX005 (ip), vehicle: Klucel + Tween-80) does the source give for `CCOc1c(N=Nc2cccc(Cl)c2)c(C)nn1C(N)=S` here?
A: 102 % of control

Q: What about the T/C (dose: 120.0 mg/kg/injection, schedule: Q01DX005 (ip), vehicle: Klucel + Tween-80) of the same molecule?
A: 93 % of control

Q: What about the T/C (dose: 240.0 mg/kg/injection, schedule: Q01DX005 (ip), vehicle: Klucel + Tween-80) of the same molecule?
A: 95 % of control

Q: Which results are given for `c1ccc(-c2nc3cc4c(cc3n3cccc23)oc2ccccc24)cc1`?
A: T/C (dose: 25.0 mg/kg/injection, schedule: Q01DX005 (ip), vehicle: saline with Tween-80): 95 % of control; T/C [4]: 100 % of control; T/C [5]: 94 % of control
